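Cultured in 96-well plates, cells were exposed to test compound for 48 hours across five concentrations. GI50 = concentration required for 50% inhibition of growth.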 Calls of active or inactive are those of the source. No stated cut-off is given here; in the data, active = GI50 up to about 1.1 µM and inactive = higher.
Key:
Experiment in all cases: growth of human tumour cells (NCI), 48 h
HCC 2998 = system: HCC 2998
HOP-92 = system: HOP-92
ACHN = system: ACHN
OVCAR-8 = system: OVCAR-8
TK-10 = system: TK-10
SR = system: SR
DMS-114 = system: DMS-114
RPMI-8226 = system: RPMI-8226
786-0 = system: 786-0
HL-60 = system: HL-60
NCI/ADR-RES = system: NCI/ADR-RES
MCF7 = system: MCF7
MDA-MB-231 = system: MDA-MB-231
DU-145 = system: DU-145
BT-549 = system: BT-549
T47D = system: T47D
MDA-MB-435 = system: MDA-MB-435
MDA-N = system: MDA-N
PC-3 = system: PC-3
Hs-578T = system: Hs-578T

Measured: GI50

CN1C(=O)CN2C(Cl)(Cl)C2(c2ccccc2)c2cc(Cl)ccc21 (stereo not drawn)
inactive: HCC 2998 65.3 µM | HOP-92 13.5 µM | ACHN > 100 µM | OVCAR-8 > 100 µM | TK-10 > 100 µM | SR > 10 µM | DMS-114 > 100 µM | RPMI-8226 > 100 µM

CC12CC3(C)CC(C)(C1)CC(N=[N+]=[N-])(C2)C3
inactive: HCC 2998 > 100 µM | HOP-92 > 100 µM | ACHN > 100 µM | 786-0 > 100 µM | OVCAR-8 > 100 µM | TK-10 > 100 µM | SR > 100 µM | DMS-114 > 100 µM | RPMI-8226 > 100 µM

S=c1sc2cscc2s1
inactive: HCC 2998 18.7 µM | HOP-92 24.8 µM | ACHN 19.4 µM | 786-0 19.8 µM | OVCAR-8 21.7 µM | TK-10 23 µM | SR 27.8 µM | DMS-114 22.8 µM | RPMI-8226 47.6 µM | HL-60 28.1 µM

CC(=O)OCC1OC(n2cc(F)c(=O)[nH]c2=O)C(N)C(OC(C)=O)C1OC(C)=O (stereo not drawn)
inactive: HCC 2998 > 100 µM | HOP-92 > 100 µM | NCI/ADR-RES > 100 µM | OVCAR-8 > 100 µM | DMS-114 > 100 µM | MCF7 > 100 µM | RPMI-8226 > 100 µM | HL-60 > 100 µM

O=C1CSc2sc(=S)sc2S1
inactive: HCC 2998 > 80.2 µM | HOP-92 > 100 µM | NCI/ADR-RES > 66.8 µM | OVCAR-8 > 100 µM | DMS-114 > 100 µM | MCF7 > 100 µM | RPMI-8226 78.9 µM | HL-60 > 61.5 µM

Cc1[nH]c(=O)[nH]c(=O)c1/C=C/C(=O)NC(CO)C[S+]([O-])C[S+](C)[O-] (stereo not drawn)
inactive: HCC 2998 9.62 µM | HOP-92 9.73 µM | NCI/ADR-RES 24.8 µM | OVCAR-8 28.4 µM | DMS-114 11.1 µM | MCF7 20.9 µM | RPMI-8226 34.8 µM | HL-60 16.7 µM

O=C1Nc2ccccc2Nc2ccncc21
inactive: HCC 2998 > 100 µM | HOP-92 > 100 µM | NCI/ADR-RES > 100 µM | OVCAR-8 > 100 µM | DMS-114 > 100 µM | MCF7 > 100 µM | RPMI-8226 > 100 µM | HL-60 > 100 µM

O=C(Nc1nc2ncn(CCNCc3ccccc3)c2c(=O)[nH]1)c1ccccc1
inactive: HCC 2998 > 100 µM | HOP-92 > 100 µM | ACHN > 100 µM | 786-0 > 100 µM | OVCAR-8 > 100 µM | TK-10 > 100 µM | SR > 100 µM | DMS-114 > 100 µM | RPMI-8226 65.3 µM | HL-60 > 100 µM

COc1ccc(C2C(N)=NCC2c2ccccn2)cc1 (stereo not drawn)
inactive: HCC 2998 > 100 µM | HOP-92 > 100 µM | ACHN > 100 µM | 786-0 > 100 µM | OVCAR-8 > 100 µM | TK-10 > 100 µM | SR > 100 µM | DMS-114 > 100 µM | RPMI-8226 > 100 µM

COc1ccc(C2=C(Cl)c3cc(OC)c(OC)cc3C2Cl)cc1 (stereo not drawn)
inactive: HCC 2998 14.3 µM | HOP-92 12.2 µM | ACHN 13.9 µM | NCI/ADR-RES 12.7 µM | 786-0 12.2 µM | MDA-MB-231 17.7 µM | DU-145 17.9 µM | BT-549 3.78 µM | T47D 13.3 µM | MDA-MB-435 12.3 µM | MDA-N 10.1 µM | OVCAR-8 16.5 µM | TK-10 19.7 µM | SR 3.27 µM | DMS-114 14.1 µM | PC-3 12.8 µM | Hs-578T 17.3 µM | MCF7 10.5 µM | RPMI-8226 8.17 µM | HL-60 3.03 µM

Reference: ChEMBL document CHEMBL1201862, “PubChem BioAssay data set” (2004)
